# Reference: patent EP1202628B1, “NOVEL HYPOXANTHINE AND THIOHYPOXANTHINE COMPOUNDS” (EURO-CELTIQUE S.A., priority 1999, dated 2001)
# Target: T1, PDE V (Homo sapiens, UniProt O76074)
# T1 construct: Fractions that contain PDE V are pooled and dialyzed overnight; from tissue
# Experiment: Type V phosphodiesterase inhibition (hydrolysis of [3H]-cyclic GMP)
# Type: biochemical
# Conditions: enzyme isolated from platelets
# Procedure: Protocol for Enzyme Isloation: The Type V PDE is isolated using a procedure similar to that previously described by Weishaar et al., Hypertension 15:528, (1990). Briefly, 1-2 units of platelets are suspended in an equal volume of buffer A (20 mM Tris-HCl, pH 7.5, containing 2 mM magnesium acetate, I mM dithiothreitol, and 5 mM Na2EDTA) using a polytron. The proteinase inhibitor phenylmethylsulfonyl fluoride (PMSF) are also included in this buffer at a final concentration of 200 uM. This and all subsequent procedures are performed at 0-4°C. The homogenate is then centrifuged at 100,000 rpm for 60 minutes. The supernatant is then removed and filtered through four layers of gauze and applied to a DEAE-Trisacryl M column. The column is washed with several bed volumes of buffer B (20 mM Tris-HCl, pH 7.5, containing 2 mM magnesium acetate, 1 mM dithiothreitol, and […]) and eluted by two successive linear NaCl gradients (0.05-0.15 M, 300 ml total; 0.15-0.40 M, 200 ml total). Five ml fractions are collected and assayed for cyclic AMP and cyclic GMP PDE activity. Fractions that contain PDE V are pooled and dialyzed overnight against 4 L of buffer C (20 mM Tris-HCl, pH 7.5, containing 2 mM magnesium acetate and proteinase inhibitors). The dialyzed PDE V is then concentrated to 10% of the original volume, diluted to 50% with ethylene glycol monoethyl ether and stored at -20°C. PDE V can typically be retained for up to four weeks with little or no loss of activity.
# Measuring Type V PDE Activity: Enzyme activity is assessed by measuring the hydrolysis of [^3H]-cyclic GMP, as described by Thompson et al. (Thompson, W.J., Teraski, W.L., Epstein, P.N., Strada, S.J.: Adv. Cyclic Nucleotide Res. 10:69, 1979). The cyclic GMP concentration used in this assay is 0.2 uM, which approximates to the Km value. Protein concentration is adjusted to ensure that no more than 15% of the available substrate is hydrolyzed during the incubation period.
# All test compounds are dissolved in dimethyl sulfoxide (final concentration of 2.5%). This concentration of dimethyl sulfoxide inhibits enzyme activity by approximately 10%. The reference Type V PDE inhibitor zaprinast is evaluated with each assay.
# The compounds are tested over concentration range: 0.1, 1, 10, 100 uM (n=1), and IC50 determinations are made using 5 appropriate concentrations (n=2).
row,Compound,IC50
1,"COc1ccc(Cn2cnc(=O)c3[nH]c(C(C)C)nc32)cc1OC [3-(3,4-Dimethoxy-benzyl)-8-(1-methyl-ethyl)-hypoxanthine]",10.6 µM
2,"COc1ccc(Cn2cnc(=O)c3[nH]c(C(C)(C)OCc4ccc(F)cc4)nc32)cc1OC [3-(3,4-Dimethoxybenzyl)-8-(1-(4-fluorobenzyloxy)-1-methyl-ethyl)-hypoxanthine]",35.8 µM
3,COc1ccc(Cn2cnc(=O)c3[nH]c(C(C)(C)OCc4ccc(F)cc4)nc32)cc1OC1CCCC1 [3-(3-Cyclopentyloxy-4-methoxy-benzyl)-8-(1-(4-fluorobenzyloxy)-1-methyl-ethyl)-hypoxanthine],14.5 µM
4,COc1ccc(Cn2cnc(=O)c3[nH]c(C(C)(C)O)nc32)cc1OC1CCCC1 [3-(3-Cyclopentyloxy-4-methoxy-benzyl)-8-(1-hydroxy-1-methyl-ethyl)-hypoxanthine],193 µM
5,COc1ccc(Cn2cnc(=O)c3[nH]c(C(C)C)nc32)cc1OC1CCCC1 [3-(3-Cyclopentyloxy-4-methoxy-benzyl)-8-isopropyl-hypoxanthine],49 µM
6,COc1ccc(Cn2cnc(=O)c3[nH]c(C(C)(C)OCc4ccccc4)nc32)cc1OCc1ccccc1 [3-(3-benzyloxy-4-methoxy-benzyl)-8-(1-benzyloxy-1-methyl-ethyl)-hypoxanthine],12.5 µM
7,"COc1ccc(Cn2cnc(=O)c3[nH]c(C(C)(C)OCc4ccccc4)nc32)cc1OC [8-(1-Benzyloxy-1-methyl-ethyl)-3-(3,4-dimethoxybenzyl)-hypoxanthine]",10 µM

# The next compounds have a lower IC50 than those just listed; values first:
row,IC50,Compound
1,6.32 µM,CC(C)c1nc2c([nH]1)c(=O)ncn2Cc1cccc(Cl)c1 [3-(3-Chloro-benzyl)-8-(1-methyl-ethyl)-hypoxanthine]
2,7.6 µM,CC(C)c1nc2c([nH]1)c(=O)ncn2Cc1ccc(Cl)cc1 [3-(4-Chloro-benzyl)-8-(1-methyl-ethyl)-hypoxanthine]
3,8.28 µM,COc1ccc(Cn2cnc(=O)c3[nH]c(C(C)(C)OCc4ccccc4)nc32)cc1OC1CCCC1 [8-(1-benzyloxy-1-methyl-ethyl)-3-(3-cyclopentyloxy-4-methoxy-benzyl)-hypoxanthine]
4,7.53 µM,COc1ccc(Cn2cnc(=O)c3[nH]c(COCc4ccccc4)nc32)cc1OC1CCCC1 [8-Benzyloxymethyl-3-(3-cyclopentyloxy-4-methoxy-benzyl)-hypoxanthine]
